{"source": "patent US20110027785A1", "about": "“METHOD FOR DETERMINING SUSCEPTIBILITY OF INDIVIDUALS TO POLYPHENOLS” (CONOPCO, INC., D/B/A UNILEVER, priority 2009, published 2011)", "system": "male participants", "experiment": "Diastolic blood pressure pre- and post-treatment, 8 week EGCG study stratified by COMT genotype", "assay_type": "in vivo, human", "conditions": "800 mg/day EGCG, 8 weeks", "source_text": "This was a double blind, single centre, randomised and parallel design study. A total of 95 male participants were recruited on to the study using the following criteria: • healthy (no significant history or current disease or medication) • non-diabetic • non-smokers • aged 40-65 years • Body Mass Index >28 <38 The study population were randomly assigned to one of two treatment groups. Each group was balanced for age and insulin resistance (homeostatic model of insulin resistance HOMAir). HOMAir was measured from mean fasting plasma glucose values as described by Mathews et al, Diabetologia (1985), 28, 412-419. 75 subjects consented to genotype analysis for the COMT polymorphism rs4680. The active treatment was 800 mg/day EGCG and the placebo treatment 800 mg/day lactose. Treatments were administered twice daily with food for 8 weeks, one 400 mg capsule in the morning and one 400 mg capsule in the evening. The diastolic blood pressure was measured pre- and post-treatment. During the three days before pre- and post-treatment study visits, participants refrained from exercise, alcohol and ate their normal diet which consisted of at least 150 g carbohydrates. Blood pressure was measured manually on the upper arm using a sphygmomanometer (UA-787, A and D Medical). Three measurements were taken at 5 minute intervals whilst participants rested in a semi-recumbent position and with participants rested for at least 5 minutes before the first measurement. All three measurements were used to derive mean blood pressure values. Non-smoking status and alcohol abstinence were verified using Micro CO meter (Micro Medical Ltd) and AlcoMate Pro (AK Solutions) monitors, respectively. All equipment was calibrated before use. The data was stratified based on the derived COMT genotype and analysed. For each treatment group and genotype subset the mean and standard deviation for the change from baseline to endpoint was calculated. Paired t-tests were used to assess whether the change from baseline was statistically significant (p<0.05).", "data": [{"smiles": "O=C(O[C@@H]1Cc2c(O)cc(O)cc2O[C@@H]1c1cc(O)c(O)c(O)c1)c1cc(O)c(O)c(O)c1", "note": "[EGCG, epigallocatechin gallate]", "values": [{"measurement": "diastolic blood pressure, change compared to baseline", "setting": "AA (low activity) COMT genotype, paired t-test p=0.036", "result": "Statistically significant reductions"}, {"measurement": "LSMean change from baseline in diastolic blood pressure, controlled for baseline", "setting": "AA COMT genotype, p=0.044", "result": "statistically significant reduction"}, {"measurement": "diastolic blood pressure, change compared to baseline", "setting": "AG (intermediate activity) COMT genotype, paired t-test p=0.006", "result": "Statistically significant reductions"}, {"measurement": "LSMean change from baseline in diastolic blood pressure, controlled for baseline", "setting": "AG COMT genotype, p=0.012", "result": "statistically significant reduction"}, {"measurement": "diastolic blood pressure, change compared to baseline", "setting": "GG (high activity) COMT genotype, paired t-test p=0.647", "result": "not statistically significant"}, {"measurement": "LSMean change from baseline in diastolic blood pressure, controlled for baseline", "setting": "GG COMT genotype", "result": "not the GG group"}]}]}
